This passage reports cytotoxicity results from ChEMBL document CHEMBL3507680, “University of Dundee, Gates Library screen for HepG2 cell viability”.

This data set can be described thus: Human HepG2 cell viability assay in 384 well format. The format is toxicity, cell-based. To be noted: HepG2 cells, read-out: Inhibition. The arrangement: dose 125 nL, time 70.5 hour; concentration not given beside the values.
For `COc1ccc(-c2cn(CCn3c(C)cc(C)nc3=O)nn2)cn1`, the cytotoxicity at 70.5 h is -9.73%. For the compound `COc1ccc(Cl)cc1-n1c(COC(C)C)n[nH]c1=O`, the cytotoxicity at 70.5 h was -9.9%. As for `Cn1nnc(NCc2ccc(-c3ccc(Br)cc3)o2)n1`, the cytotoxicity at 70.5 h was -9.29%. Turning to `CCOc1ccccc1C(C(=O)O)N(C)Cc1nc(C)c[nH]1` (stereo unspecified), the cytotoxicity at 70.5 h is -6.68%. As to `CCc1nc(N2CCN(c3ncccc3C#N)CC2)c2cnn(C)c2n1`, the cytotoxicity at 70.5 h was 22%. For the compound `Cc1nn(C)c2c(NCc3ccccn3)ncnc12`, the cytotoxicity at 70.5 h was -2.17%. With `CC(C)n1cc(CN2CCCN(C(=O)c3ccco3)CC2)cn1`, the cytotoxicity at 70.5 h was found to be 21%. The value for `CC1CCCN(S(=O)(=O)NCCN/C(O)=C2/N=CC=CC2=O)C1` (stereo unspecified) was 0.429%. As for `Cc1nn2c(-c3cnn(C)c3)nnc2s1`, the cytotoxicity at 70.5 h was -7.18%.

Turning to `CCOCc1ccc(CNC(=O)N2CCC(C(N)=O)C2)cc1` (stereo unspecified), the cytotoxicity at 70.5 h was -2.39%. `O=C(CC1CC1)N1CCC2(COCc3cnc(N4CCOCC4)nc32)C1` (stereo unspecified): the cytotoxicity at 70.5 h is -6.88%. The value for `CSc1nsc(NC(=O)N(C)Cc2ccc3c(c2)OCO3)n1` was -8.04%; that for `CC(Cc1ccccc1F)C(=O)Nc1cccc(OCC(N)=O)c1` (stereo unspecified) was -2.21%; that for `CCc1nnsc1C(=O)N1CCCN(Cc2nccn2C)CC1` was -21.7%. On to `CCOC(C)c1nc(Cn2cc(C(=O)NC)ccc2=O)cs1` (stereo unspecified), for which the cytotoxicity at 70.5 h is -4.29%. Take `COc1no[n+]([O-])c1-c1ccccc1`: the cytotoxicity at 70.5 h was found to be 2.46%. For the compound `Cc1nn(C)c(N(C)C)c1CNC(C)COc1ccccc1F` (stereo unspecified), the cytotoxicity at 70.5 h was -11.1%. With `O=C(c1ncc(F)cc1F)N1CCC(c2ncc[nH]2)CC1`, the cytotoxicity at 70.5 h is -14%.

Regarding `Cc1cc(CN(C)C(=O)C2CC(c3cccc(F)c3)=NO2)no1` (stereo unspecified), the cytotoxicity at 70.5 h was -10.1%. With `Cn1c(-c2ccccc2)nn(CCNS(=O)(=O)c2ccccc2Cl)c1=O`, the cytotoxicity at 70.5 h came to 0.396%.

For `CCc1ccc(CN(C)C(=O)C2CC(=O)N(c3cccc(O)c3)C2)nc1` (stereo unspecified), the cytotoxicity at 70.5 h is -0.196%. For the compound `Nc1nc(CNc2nccc(CCC(F)(F)F)n2)cs1`, the cytotoxicity at 70.5 h is -7.96%. Take `CC(=O)NCC(=O)N1CCCC1c1ccc(CN2CCOCC2)cn1` (stereo unspecified): the cytotoxicity at 70.5 h is -4.76%. Take `Cc1cc(C)c(CNC(=O)NCc2ccc(F)cc2)c(=O)[nH]1`: the cytotoxicity at 70.5 h is -3.16%.

For the compound `CCc1cnc(N2CC[C@H]3[C@@H]2CCC(=O)N3c2cccnc2)nc1`, the cytotoxicity at 70.5 h is -7.03%. Regarding `Cc1ncncc1C(=O)N1CCCC1c1c(C)nn(C)c1Cl` (stereo unspecified), the cytotoxicity at 70.5 h was -10.6%. For the compound `Cc1ncccc1-c1cc2cccnc2n1CCCNC(=O)C1CC1`, the cytotoxicity at 70.5 h amounted to 1.77%.

With `CC(=O)c1ccn(CC(=O)Nc2nn(CC3CC3)c3ccccc23)n1`, the cytotoxicity at 70.5 h was -10.7%. For `CCS(=O)(=O)c1ccccc1C(=O)NCC1Cc2ccccc2O1` (stereo unspecified), the cytotoxicity at 70.5 h is -3.88%. In the case of `CCc1ncnc(N2CCCC(c3cc(C(N)=O)[nH]n3)C2)c1F` (stereo unspecified) it was -3.89%; in that of `Nc1nccnc1C(=O)N1CC(OCc2cccc3ccccc23)C1`, 9.66%.

With `COCC(=O)NC[C@]12COC[C@H]1CN(Cc1ccc3c(c1)OCO3)C2`, the cytotoxicity at 70.5 h was -0.957%. In the case of `Cc1cnn(CCNCc2nc(-c3ccccn3)no2)c1` it was -6.05%; in that of `COCCO[C@H]1CCN(C(=O)c2cc(C)on2)[C@H]1Cc1ccccc1`, 0.559%; in that of `O=C([C@@H]1C[C@@H]2CCN(Cc3ccccn3)C[C@H]2O1)N1CCCO1`, 2.74%. As to `N#Cc1ccc(CN2C(=O)c3ccccc3CS2(=O)=O)c(F)c1`, the cytotoxicity at 70.5 h stood at 2.45%. The value for `CCCN1CCN(Cc2cccc(OC)c2)[C@H]2CS(=O)(=O)C[C@H]21` was 25.9%. With `CC(C)Cc1nc(OCC(N)=O)c(C#N)c2c1CCCC2`, the cytotoxicity at 70.5 h was -9.41%. As to `CC1CCN(CC(=O)NC(C#N)c2cnn(-c3ccccc3)c2)CC1` (stereo unspecified), the cytotoxicity at 70.5 h is -2.96%. With `Cc1ccc(C)c2c(C)c(C(=O)NCCC(=O)N3CCOCC3)oc12`, the cytotoxicity at 70.5 h is -10.6%. In the case of `Cc1cccc(CN(C(=O)CCn2cncn2)C(C)C)c1`, the cytotoxicity at 70.5 h was -9.18%. In the case of `Cc1nnc(NC(=O)NCCCN2CCC(C(N)=O)CC2)s1` it was -8.8%; in that of `Cn1ccnc1C1CCCN(C(=O)c2ccncc2F)C1` (stereo unspecified), -5.94%; in that of `COc1cccc(C(O)CN2CCN(C(=O)c3ccsc3)CC2)c1` (stereo unspecified), -5.91%. Consider `CCOc1ccc(CN2CCC(c3[nH]ncc3C)C2)cc1CO` (stereo unspecified), for which the cytotoxicity at 70.5 h is -7.99%. In the case of `CCN(C(=O)c1cnc(-c2ccc3c(c2)OCO3)s1)C1CC1`, the cytotoxicity at 70.5 h amounted to 12.4%.

Turning to `O=c1[nH]c(-c2ccccn2)nc2c1CCN(S(=O)(=O)N1CCCC1)C2`, the cytotoxicity at 70.5 h is -3.27%.

On to `O=C1CC(c2ccccc2)c2cnn(C3CCCC3)c2N1` (stereo unspecified), for which the cytotoxicity at 70.5 h came to 18.5%.

As for `CC(C)N(Cc1nc(-c2cccs2)no1)CC1CCC(=O)N1` (stereo unspecified), the cytotoxicity at 70.5 h was -11.1%. As to `CCn1c(CN(C)C)nnc1C1CCN(Cc2cccc(F)c2F)CC1`, the cytotoxicity at 70.5 h was -1.68%. With `CCn1c(C2CCCN(Cc3cccc4cnccc34)C2)nn(C)c1=O` (stereo unspecified), the cytotoxicity at 70.5 h was -7.71%. In the case of `COc1cc(C)ccc1OCc1nc(C(=O)N2CCCC2)co1` it was 0.58%. Regarding `COCCn1cc2c(n1)C(CNCc1ccsc1)OCC2` (stereo unspecified), the cytotoxicity at 70.5 h is -14.8%.

Consider `CC(C)C(=O)Nc1cc(C(C)(C)C)nn1-c1ccccn1`, for which the cytotoxicity at 70.5 h is -3.18%. In the case of `Cc1ccc(CN2CCCC3(CCCC(=O)N3C)C2)s1` (stereo unspecified) it was -9.33%; in that of `CC1CN(Cc2cccc(C#N)c2)CCN1c1ccc2nncn2n1` (stereo unspecified), -5.84%. With `Cc1ccc(CNC(C)c2ccc(N3CCN(C)CC3)c(F)c2)o1` (stereo unspecified), the cytotoxicity at 70.5 h came out at 0.0517%. As to `CN(C)CC1(O)CCCN(C(=O)c2ccccc2-n2cncn2)C1` (stereo unspecified), the cytotoxicity at 70.5 h was -3.77%. As to `Cc1nc(NCCSc2nnc(C)s2)c2cccnc2n1`, the cytotoxicity at 70.5 h is -14.5%.

Consider `c1ccc(CN2CCCn3nnc(COc4ccccn4)c3C2)nc1`, for which the cytotoxicity at 70.5 h is -11.2%.

Turning to `c1cc(NCc2cscn2)cc(OCCN2CCCCC2)c1`, the cytotoxicity at 70.5 h was -2.11%. Take `Cc1cc(CC(C)Nc2nc(C3CCCC3)nc3c2cnn3C)[nH]n1` (stereo unspecified): the cytotoxicity at 70.5 h was -13%. The value for `Cc1ccc(C(=O)N2CCOC(c3nc(C(C)(C)C)n[nH]3)C2)c(=O)[nH]1` (stereo unspecified) was 0.0481%; that for `Cc1cc(CN(CC(N)=O)CC(C)C)on1` was 18.1%. Turning to `CCN(Cc1ccncc1)C1CCN(c2ccccc2)C1=O` (stereo unspecified), the cytotoxicity at 70.5 h stood at 1.49%. Turning to `CN(CCCNC(=O)c1ccccc1F)CC(F)(F)F`, the cytotoxicity at 70.5 h is -2.12%. Consider `Cc1cccc(Nc2ccc(C3CCN(Cc4ncc[nH]4)CC3)nc2)n1`, for which the cytotoxicity at 70.5 h was found to be 0.422%. For `CC(=O)N(Cc1ccoc1)C1CCCCC1`, the cytotoxicity at 70.5 h was -5.21%. With `CC(=O)N1CCN(CC(N)=O)CC(COc2ccccc2)C1` (stereo unspecified), the cytotoxicity at 70.5 h stood at 6.55%. `CCn1ccc(C(=O)N2CCCN(Cc3ccccc3F)CC2)cc1=O`: the cytotoxicity at 70.5 h came to 17.5%. In the case of `CN(C(=O)c1ncn2c1CN(C)S(=O)(=O)c1ccccc1-2)C1CC1` it was -3.76%.
